Results on 27 compounds are retold here after PubChem BioAssay (NCI).

The structures appear in SMILES notation. “And” between values parts separate entries of the source, which are not always exact repeats. Equal entries are not always repeated.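 Following 48 hours of exposure in 96-well plates, responses at five concentrations were used to interpolate endpoints linearly. GI50 is the concentration that inhibits growth by half. TGI is the concentration that stops growth completely.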

Among the test systems are LXFL 529 NSCLC; HOP-18 NSCLC; SNB-78 CNS; DMS 273 small cell lung; DLD-1 colon; MDA-N; NCI/ADR-RES ovarian; XF 498 CNS.
Common to all, as to assay: NCI-60 cell line screen, 48 h

Take `CCCCN=C(NC#N)N(Cc1ccccc1)Cc1ccccc1`: the TGI in the assay with LXFL 529 NSCLC was 32.8 µM; in the assay on HOP-18 NSCLC, above 100 µM; in the assay with SNB-78 CNS, above 100 µM; in the assay with DMS 273 small cell lung, 37.1 µM; in the assay with DLD-1 colon, 36.4 µM.
`Cc1cc(Oc2cnc(=O)[nH]c2)cs1`: the TGI with MDA-N and with NCI/ADR-RES ovarian was above 100 µM throughout.
For the compound `CN1CCC(C(=O)Nc2n[nH]c3nc(-c4ccc(O)cc4)c(Br)cc23)CC1`, in the assay on NCI/ADR-RES ovarian, the GI50 is 24.9 µM and > 25 µM; the TGI was above 25 µM.
Consider `CC1(C)CCC[C@]2(C)c3cc(O)ccc3CC[C@@H]12`, for which, in the assay on NCI/ADR-RES ovarian, the GI50 is 16.5 µM and the TGI amounted to 32.5 µM.
`O=C1c2cc(-c3ccccc3)ccc2-c2c1c1ccc([N+](=O)[O-])cc1c(=O)n2CCCBr`: in the assay on NCI/ADR-RES ovarian, the GI50 was above 50 µM and the TGI is above 50 µM.
In the case of `COc1cc2c(cc1OC)C(CC1(O)CCCCC1)N(S(=O)(=O)c1ccc(C)cc1)CC2` (stereo unspecified), in the assay with NCI/ADR-RES ovarian, the GI50 is above 10 µM and the TGI is above 10 µM.
For `COc1ccc2c(c1)CCc1[nH]nc(-c3cc(OC)c(OC)c(OC)c3)c1-2`, in the assay with NCI/ADR-RES ovarian, the GI50 is below 0.01 µM and the TGI was below 0.01 µM.
With `Cc1cccc(Cl)c1NC(=O)c1cnc(Nc2cc(N3CCOCC3)cc(N3CCOCC3)c2)s1`, in the assay with NCI/ADR-RES ovarian, the GI50 was 1.05 µM and the TGI was above 10 µM.
The matching figures for `COc1cc(F)cc([C@@H](CO)NC(=O)[C@@H](C)N2Cc3ccc(-c4nc(NC5CCOCC5)ncc4Cl)cc3C2=O)c1`: 16.3 µM and 78.2 µM.
With `CC(=O)C1COC(O)C1C` (stereo unspecified), the TGI in the assay on MDA-N was determined as 43.5 µM; in the assay on NCI/ADR-RES ovarian, 48.6 µM.
On to `O=C(O)C(C(=O)C(=O)C(C(=O)O)c1ccc(Cl)cc1)c1ccc(Cl)cc1` (stereo unspecified), for which the TGI in the assay with LXFL 529 NSCLC was determined as 10.7 µM; with HOP-18 NSCLC it was 18.1 µM; with SNB-78 CNS, 13.9 µM; with DMS 273 small cell lung, 12.9 µM; in the assay with XF 498 CNS it was 5.95 µM; in the assay with DLD-1 colon, 14.1 µM.
Consider `COc1ccc2nc3cc([N+](=O)[O-])ccc3c(NCCCN(CCO)CCO)c2c1`, for which, in the assay on MDA-N, the GI50 was 3.47 µM and the TGI amounted to 8.93 µM. In addition, in the assay with NCI/ADR-RES ovarian, the GI50 was 15.9 µM and the TGI amounted to 39.9 µM.
As to `O=[P+](O)c1cc2ccccc2c2ccccc12`, the TGI with LXFL 529 NSCLC, with HOP-18 NSCLC, in the assay on SNB-78 CNS, with DMS 273 small cell lung and with DLD-1 colon was above 100 µM in each case.
Consider `COC(=O)[C@@]1(O)CC(C)C=C1C=O` (stereo partly specified), for which the TGI in the assay with LXFL 529 NSCLC is above 100 µM; in the assay with HOP-18 NSCLC, above 100 µM; in the assay with SNB-78 CNS, above 100 µM; with DMS 273 small cell lung, 34.6 µM; in the assay with XF 498 CNS, above 100 µM; with DLD-1 colon, above 100 µM.
For `O=CC(Br)C(Br)c1ccccc1` (stereo unspecified), in the assay on NCI/ADR-RES ovarian, the GI50 is 4.77 µM and the TGI is 27.7 µM.
Taken in the same sequence, the figures for `CCCCOC(=O)c1ccc(NC(=O)CCl)cc1` were 2.79 µM and 8.84 µM.
Consider `CC(=O)OC(C)(C)/C=C/C(=O)[C@](C)(O)[C@H]1[C@H](O)C[C@@]2(C)[C@@H]3CC=C4[C@@H](C[C@H](O)C(=O)C4(C)C)[C@]3(CO)C(=O)C[C@]12C`, for which the GI50 in the assay with LXFL 529 NSCLC is 0.09 µM; with HOP-18 NSCLC it was 0.216 µM; in the assay on SNB-78 CNS, 0.269 µM; in the assay on DMS 273 small cell lung, 0.324 µM; in the assay with XF 498 CNS it was 0.108 µM; in the assay with DLD-1 colon it was 0.216 µM. The TGI in the assay on LXFL 529 NSCLC was 6.62 µM; with HOP-18 NSCLC it was 0.646 µM and 1.32 µM; in the assay on SNB-78 CNS, 0.983 µM and 3.92 µM; with DMS 273 small cell lung it was 0.771 µM; in the assay with XF 498 CNS, 0.665 µM and 0.209 µM; in the assay with DLD-1 colon it was 15 µM.
As to `COc1ccc(-c2nn(-c3cccc(Cl)c3)cc2-c2c(C#N)c(=O)n3[nH]c(-c4ccc(C)cc4)nc3c2C#N)cc1`, in the assay on NCI/ADR-RES ovarian, the GI50 is 9.43 µM and the TGI worked out at 37.5 µM.
Take `CCOC(=O)[C@H]1CSC[C@@H](C(=O)OC)N1`: the TGI with LXFL 529 NSCLC, in the assay on DMS 273 small cell lung and with DLD-1 colon was above 100 µM throughout.
`CN1C(=O)C(=Cc2cn(Cc3ccccc3)c3ccccc23)C(=O)N(C)C1=O`: in the assay with NCI/ADR-RES ovarian, the GI50 is above 70 µM and the TGI is above 100 µM.
Taken in the same sequence, the figures for `COc1ccc(-c2cn(-c3cccc(C(=O)/C=C/c4ccc(O)c(OC)c4)c3)c(=O)[nH]2)cc1` were 2.97 µM and above 31.4 µM.
`CC(C)N1CCC2(CC1)NNc1ncccc1-n1cccc12`: the TGI in the assay on HOP-18 NSCLC, in the assay with SNB-78 CNS, with DMS 273 small cell lung, with XF 498 CNS and in the assay with DLD-1 colon was above 100 µM each time.
Consider `O=c1cc(-c2ccccc2)nc(/C=C(\O)c2ccncc2)n1-c1ccccc1`, for which the TGI with LXFL 529 NSCLC, in the assay with HOP-18 NSCLC, with SNB-78 CNS, in the assay on DMS 273 small cell lung and with DLD-1 colon was above 100 µM throughout.
On to `CCCOC(=O)N[C@H]1CCc2cc(OC)c(OC)c(OC)c2-c2ccc(SC)c(=O)cc21`, for which, in the assay on NCI/ADR-RES ovarian, the GI50 was 0.0268 µM and the TGI was above 100 µM.
For `Cc1cc([N+](=O)[O-])ccc1NS(=O)(=O)c1cc(Cl)ccc1Cl`, in the assay with NCI/ADR-RES ovarian, the GI50 was 3.07 µM and the TGI turned out to be 17.5 µM.
Consider `O=C1C2CC=CCC2C(=O)C12CCc1ccccc12` (stereo unspecified), for which the TGI in the assay on LXFL 529 NSCLC, with HOP-18 NSCLC, in the assay with SNB-78 CNS, in the assay on DMS 273 small cell lung, in the assay on XF 498 CNS and with DLD-1 colon was above 100 µM each time.
As for `Cc1ccc(C(=O)N2CCN(C(=O)c3ccc(C)cc3)c3ccccc32)cc1`, the TGI is above 100 µM in the assay on LXFL 529 NSCLC; above 100 µM with HOP-18 NSCLC; above 100 µM with MDA-N; above 100 µM in the assay on SNB-78 CNS; above 35.8 µM with DMS 273 small cell lung; 70 µM in the assay on XF 498 CNS. The TGI with DLD-1 colon is above 100 µM.
